Where a name gives a salt, the structure may show the parent alone. Read-outs that look alike come from different tables or passages of the source.
Settings: for Diastolic blood pressure Mean ± SD / Diastolic blood pressure Median / Diastolic blood pressure Min / Heart rate Max / Heart rate Mean ± SD / Heart rate Median / Heart rate Min / Diastolic blood pressure Max / Systolic blood pressure, Max / Systolic blood pressure, Mean ± SD / Systolic blood pressure, Median / Systolic blood pressure, Min: opioid withdrawal patients
From the text: The participants were continuously monitored by the site personnel, including blood pressure and heart rate, from the start of the infusion through resolution of sedation and/or any adverse effects on blood pressure or heart rate. An electrocardiogram was obtained at screening, pre-infusion and upon resolution of sedation, a predetermined reduction in COWS or return to baseline.

[1] = Day-1, 30 min. post Infusion, n=11
[2] = Day-2, 30 min. post Infusion, n=5
[3] = opioid withdrawal, during infusion

Cc1cccc([C@H](C)c2cnc[nH]2)c1C [dexmedetomidine hydrochloride]
Diastolic blood pressure Mean ± SD (Day-2, 01:15 Hr): 78.5 ± 22.5 mm of Hg
Diastolic blood pressure Median (Day-2, 01:15 Hr): 78.5 mm of Hg
Diastolic blood pressure Min (Day-2, 01:15 Hr): 56 mm of Hg
Heart rate Max (Day-2, 01:15 Hr): 100 beats/minutes
Heart rate Mean ± SD (Day-2, 01:15 Hr): 88 ± 12 beats/minutes
Heart rate Median (Day-2, 01:15 Hr): 88 beats/minutes
Heart rate Min (Day-2, 01:15 Hr): 76 beats/minutes
Diastolic blood pressure Max (Day-2, 01:30 Hr): 75 mm of Hg
Diastolic blood pressure Mean ± SD (Day-2, 01:30 Hr): 75 mm of Hg
Diastolic blood pressure Median (Day-2, 01:30 Hr): 75 mm of Hg
Diastolic blood pressure Min (Day-2, 01:30 Hr): 75 mm of Hg
Heart rate Max (Day-2, 01:30 Hr): 73 beats/minutes
Heart rate Mean ± SD (Day-2, 01:30 Hr): 73 beats/minutes
Heart rate Median (Day-2, 01:30 Hr): 73 beats/minutes
Heart rate Min (Day-2, 01:30 Hr): 73 beats/minutes
Diastolic blood pressure Max (Day-2, 01:45 Hr): 89 mm of Hg
Diastolic blood pressure Mean ± SD (Day-2, 01:45 Hr): 89 mm of Hg
Diastolic blood pressure Median (Day-2, 01:45 Hr): 89 mm of Hg
Diastolic blood pressure Min (Day-2, 01:45 Hr): 89 mm of Hg
Heart rate Max (Day-2, 01:45 Hr): 92 beats/minutes
Heart rate Mean ± SD (Day-2, 01:45 Hr): 92 beats/minutes
Heart rate Median (Day-2, 01:45 Hr): 92 beats/minutes
Heart rate Min (Day-2, 01:45 Hr): 92 beats/minutes
Diastolic blood pressure Max (Day-2, 02:00 Hr): 90 mm of Hg
Diastolic blood pressure Mean ± SD (Day-2, 02:00 Hr): 90 mm of Hg
Diastolic blood pressure Median (Day-2, 02:00 Hr): 90 mm of Hg
Diastolic blood pressure Min (Day-2, 02:00 Hr): 90 mm of Hg
Heart rate Max (Day-2, 02:00 Hr): 94 beats/minutes
Heart rate Mean ± SD (Day-2, 02:00 Hr): 94 beats/minutes
Heart rate Median (Day-2, 02:00 Hr): 94 beats/minutes
Heart rate Min (Day-2, 02:00 Hr): 94 beats/minutes
Diastolic blood pressure Max (Day-2, 30 min. post Infusion): 98 mm of Hg
Diastolic blood pressure Mean ± SD (Day-2, 30 min. post Infusion): 84.4 ± 9.24 mm of Hg
Diastolic blood pressure Median (Day-2, 30 min. post Infusion): 86 mm of Hg
Diastolic blood pressure Min (Day-2, 30 min. post Infusion): 70 mm of Hg
Heart rate Max (Day-2, 30 min. post Infusion): 90 beats/minutes
Heart rate Mean ± SD (Day-2, 30 min. post Infusion): 70.8 ± 15.72 beats/minutes
Heart rate Median (Day-2, 30 min. post Infusion): 60 beats/minutes
Heart rate Min (Day-2, 30 min. post Infusion): 56 beats/minutes
all the vital signs values (opioid withdrawal): within clinically acceptable limits
Systolic blood pressure, Max (Day-1, 00:00 Hr, n=11): 178 mm of Hg
Systolic blood pressure, Mean ± SD (Day-1, 00:00 Hr, n=11): 134 ± 15.77 mm of Hg
Systolic blood pressure, Median (Day-1, 00:00 Hr, n=11): 127 mm of Hg
Systolic blood pressure, Min (Day-1, 00:00 Hr, n=11): 120 mm of Hg
Systolic blood pressure, Max (Day-1, 00:15 Hr, n=11): 157 mm of Hg
Systolic blood pressure, Mean ± SD (Day-1, 00:15 Hr, n=11): 129.73 ± 13.68 mm of Hg
Systolic blood pressure, Median (Day-1, 00:15 Hr, n=11): 127 mm of Hg
Systolic blood pressure, Min (Day-1, 00:15 Hr, n=11): 112 mm of Hg
Systolic blood pressure, Max (Day-1, 00:30 Hr, n=9): 160 mm of Hg
Systolic blood pressure, Mean ± SD (Day-1, 00:30 Hr, n=9): 124.78 ± 15.55 mm of Hg
Systolic blood pressure, Median (Day-1, 00:30 Hr, n=9): 128 mm of Hg
Systolic blood pressure, Min (Day-1, 00:30 Hr, n=9): 107 mm of Hg
Systolic blood pressure, Max (Day-1, 00:45 Hr, n=6): 125 mm of Hg
Systolic blood pressure, Mean ± SD (Day-1, 00:45 Hr, n=6): 113 ± 8.24 mm of Hg
Systolic blood pressure, Median (Day-1, 00:45 Hr, n=6): 114 mm of Hg
Systolic blood pressure, Min (Day-1, 00:45 Hr, n=6): 100 mm of Hg
Systolic blood pressure, Max (Day-1, 01:00 Hr, n=5): 120 mm of Hg
Systolic blood pressure, Mean ± SD (Day-1, 01:00 Hr, n=5): 114 ± 4.85 mm of Hg
Systolic blood pressure, Median (Day-1, 01:00 Hr, n=5): 115 mm of Hg
Systolic blood pressure, Min (Day-1, 01:00 Hr, n=5): 107 mm of Hg
Systolic blood pressure, Max (Day-1, 01:15 Hr, n=3): 112 mm of Hg
Systolic blood pressure, Mean ± SD (Day-1, 01:15 Hr, n=3): 110 ± 1.63 mm of Hg
Systolic blood pressure, Median (Day-1, 01:15 Hr, n=3): 110 mm of Hg
Systolic blood pressure, Min (Day-1, 01:15 Hr, n=3): 108 mm of Hg
Systolic blood pressure, Max (Day-1, 01:30 Hr, n=2): 112 mm of Hg
Systolic blood pressure, Mean ± SD (Day-1, 01:30 Hr, n=2): 106.5 ± 5.5 mm of Hg
Systolic blood pressure, Median (Day-1, 01:30 Hr, n=2): 106.5 mm of Hg
Systolic blood pressure, Min (Day-1, 01:30 Hr, n=2): 101 mm of Hg
Systolic blood pressure, Max [1]: 160 mm of Hg
Systolic blood pressure, Mean ± SD [1]: 130.91 ± 18.09 mm of Hg
Systolic blood pressure, Median [1]: 129 mm of Hg
Systolic blood pressure, Min [1]: 108 mm of Hg
Systolic blood pressure, Max (Day-1, Screening, n=11): 170 mm of Hg
Systolic blood pressure, Mean ± SD (Day-1, Screening, n=11): 130.36 ± 16.92 mm of Hg
Systolic blood pressure, Median (Day-1, Screening, n=11): 127 mm of Hg
Systolic blood pressure, Min (Day-1, Screening, n=11): 110 mm of Hg
Systolic blood pressure, Max (Day-2, 00:00 Hr, n=5): 141 mm of Hg
Systolic blood pressure, Mean ± SD (Day-2, 00:00 Hr, n=5): 127.2 ± 11.37 mm of Hg
Systolic blood pressure, Median (Day-2, 00:00 Hr, n=5): 133 mm of Hg
Systolic blood pressure, Min (Day-2, 00:00 Hr, n=5): 109 mm of Hg
Systolic blood pressure, Max (Day-2, 00:15 Hr, n=5): 139 mm of Hg
Systolic blood pressure, Mean ± SD (Day-2, 00:15 Hr, n=5): 123.6 ± 13.41 mm of Hg
Systolic blood pressure, Median (Day-2, 00:15 Hr, n=5): 131 mm of Hg
Systolic blood pressure, Min (Day-2, 00:15 Hr, n=5): 103 mm of Hg
Systolic blood pressure, Max (Day-2, 00:30 Hr, n=5): 137 mm of Hg
Systolic blood pressure, Mean ± SD (Day-2, 00:30 Hr, n=5): 121.6 ± 12.15 mm of Hg
Systolic blood pressure, Median (Day-2, 00:30 Hr, n=5): 125 mm of Hg
Systolic blood pressure, Min (Day-2, 00:30 Hr, n=5): 106 mm of Hg
Systolic blood pressure, Max (Day-2, 00:45 Hr, n=4): 131 mm of Hg
Systolic blood pressure, Mean ± SD (Day-2, 00:45 Hr, n=4): 123.15 ± 9.17 mm of Hg
Systolic blood pressure, Median (Day-2, 00:45 Hr, n=4): 128 mm of Hg
Systolic blood pressure, Min (Day-2, 00:45 Hr, n=4): 108 mm of Hg
Systolic blood pressure, Max (Day-2, 01:00 Hr, n=3): 132 mm of Hg
Systolic blood pressure, Mean ± SD (Day-2, 01:00 Hr, n=3): 124.33 ± 9.46 mm of Hg
Systolic blood pressure, Median (Day-2, 01:00 Hr, n=3): 130 mm of Hg
Systolic blood pressure, Min (Day-2, 01:00 Hr, n=3): 111 mm of Hg
Systolic blood pressure, Max (Day-2, 01:15 Hr, n=2): 130 mm of Hg
Systolic blood pressure, Mean ± SD (Day-2, 01:15 Hr, n=2): 115.5 ± 14.5 mm of Hg
Systolic blood pressure, Median (Day-2, 01:15 Hr, n=2): 115.5 mm of Hg
Systolic blood pressure, Min (Day-2, 01:15 Hr, n=2): 101 mm of Hg
Systolic blood pressure, Mean ± SD (Day-2, 01:30 Hr, n=1): 114 mm of Hg
Systolic blood pressure, Median (Day-2, 01:30 Hr, n=1): 114 mm of Hg
Systolic blood pressure, Mean ± SD (Day-2, 01:45 Hr, n=1): 112 mm of Hg
Systolic blood pressure, Median (Day-2, 01:45 Hr, n=1): 112 mm of Hg
Systolic blood pressure, Mean ± SD (Day-2, 02:00 Hr, n=1): 114 mm of Hg
Systolic blood pressure, Median (Day-2, 02:00 Hr, n=1): 114 mm of Hg
Systolic blood pressure, Max [2]: 146 mm of Hg
Systolic blood pressure, Mean ± SD [2]: 127.6 ± 13.1 mm of Hg
Systolic blood pressure, Median [2]: 130 mm of Hg
Systolic blood pressure, Min [2]: 110 mm of Hg
Diastolic blood pressure mean values, in words [3]: within clinically acceptable limits
Heart rate mean values, in words [3]: within clinically acceptable limits
Systolic blood pressure mean values, in words [3]: within clinically acceptable limits
heart rate at which stopping criteria was met (opioid withdrawal, one patient, after 15 minutes): ≤ 50

Reference: patent US20210267944A1 (BioXcel Therapeutics, Inc., priority 2018, published 2021)
